The supplement of paper PMC11061612

Legend:
RVH-421 (Melanoma) [1] = assay: Bliss excess, mean over the matrix (fraction); higher = more synergy
Method in brief: (§1)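 After 24 hours at 37°C and 5% CO2 in 1536-well plates, cells in DMEM/F12 or RPMI plus 10% FBS received two-drug dose matrices for 72 hours. Viability came from CellTiter-Glo 2.0 luminescence and was scaled as inhibition, anchored at 0 by vehicle wells and at 1 by blank wells. Combination Emax is taken as the second-highest inhibition in the matrix, and Bliss excess as the observed combination effect less EA + EB − EA·EB, with EA and EB the single-agent effects.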

A375 (Melanoma) = assay: as above
Method in brief: as §1

[2] = system: SNU-1 (Gastric Carcinoma); assay: as above
Method in brief: as §1

[3] = system: TOV-21G (Ovarian Carcinoma); assay: as above
Method in brief: as §1

[4] = system: TK (B-Cell Non-Hodgkin's Lymphoma); assay: as above
Method in brief: as §1

[5] = system: NCI-H2009 (Lung Adenocarcinoma); assay: as above
Method in brief: as §1

GCIY (Gastric Carcinoma) = assay: as above
Method in brief: as §1

[6] = system: NCI-H2023 (Non-Small Cell Lung Carcinoma); assay: as above
Method in brief: as §1

[7] = system: COR-L105 (Lung Adenocarcinoma); assay: as above
Method in brief: as §1

[8] = system: OVKATE (Ovarian Carcinoma); assay: as above
Method in brief: as §1

[9] = system: BC-1 (B-Cell Non-Hodgkin's Lymphoma); assay: as above
Method in brief: as §1

[10] = system: SCC90 (Head and Neck Carcinoma); assay: as above
Method in brief: as §1

[11] = system: HT-3 (Cervical Carcinoma); assay: as above
Method in brief: as §1

HT-144 (Melanoma) = assay: as above
Method in brief: as §1

[12] = system: GRANTA-519 (B-Cell Non-Hodgkin's Lymphoma); assay: as above
Method in brief: as §1

[13] = system: NCI-H1048 (Small Cell Lung Carcinoma); assay: as above
Method in brief: as §1

[14] = system: KNS-62 (Squamous Cell Lung Carcinoma); assay: as above
Method in brief: as §1

RVH-421 (Melanoma) [15] = assay: combination Emax (second highest fraction inhibited in the dose matrix, 72 h); higher = more inhibition; extreme values may be limits of the assay
Method in brief: as §1
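Throughout, for Bliss excess, mean over the matrix: after 72 h of two-drug dosing.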

Row | Compound | Bliss excess (RVH-421 (Melanoma) [1]) | Bliss excess (A375 (Melanoma)) | Bliss excess [2] | Bliss excess [3] | Bliss excess [4] | Bliss excess [5] | Bliss excess (GCIY (Gastric Carcinoma)) | Bliss excess [6] | Bliss excess [7] | Bliss excess [8] | Bliss excess [9] | Bliss excess [10] | Bliss excess [11] | Bliss excess (HT-144 (Melanoma)) | Bliss excess [12] | Bliss excess [13] | Bliss excess [14] | combination Emax (RVH-421 (Melanoma) [15])
1 | CN(CCO)CC[C@H](CSc1ccccc1)Nc1ccc(S(=O)(=O)NC(=O)c2ccc(N3CCC([C@@H](O)c4ccccc4-c4ccc(Cl)cc4)CC3)cc2)cc1S(=O)(=O)C(F)(F)F [AZD4320] + C1CN(CCC1(C(=O)N[C@@H](CCO)C2=CC=C(C=C2)Cl)N)C3=NC=NC4=C3C=CN4 [Capivasertib] (first compound max 1 µM, 7x7, partner max 3 µM) | -0.0454 | -0.0414 | -0.0441 | -0.0429 | 0.0106 | -0.0467 | 0.0298 | -0.103 | -0.0378 | -0.0775 | -0.0342 | -0.0306 | -0.0593 | -0.0412 | -0.0649 | 0.0513 | -0.0637 | 0.486
2 | CN(CCO)CC[C@H](CSc1ccccc1)Nc1ccc(S(=O)(=O)NC(=O)c2ccc(N3CCC([C@@H](O)c4ccccc4-c4ccc(Cl)cc4)CC3)cc2)cc1S(=O)(=O)C(F)(F)F [AZD4320] + CC(=O)O[C@H]1C(=O)[C@@]2(C)[C@H]([C@H](OC(=O)c3ccccc3)[C@]3(O)C[C@H](OC(=O)[C@H](O)[C@@H](NC(=O)c4ccccc4)c4ccccc4)C(C)=C1C3(C)C)[C@]1(OC(C)=O)CO[C@@H]1C[C@@H]2O [Paclitaxel] (first compound max 1 µM, 7x7, partner max 3 µM) |  | 0.0759 |  |  |  | 0.0889 | 0.131 | 0.0458 | 0.0195 | 0.113 | 0.0045 |  |  |  |  |  | 0.185 | 
3 | CN(CCO)CC[C@H](CSc1ccccc1)Nc1ccc(S(=O)(=O)NC(=O)c2ccc(N3CCC([C@@H](O)c4ccccc4-c4ccc(Cl)cc4)CC3)cc2)cc1S(=O)(=O)C(F)(F)F [AZD4320] + CCN(CCO)CCCOc1ccc2c(Nc3cc(CC(=O)Nc4cccc(F)c4)[nH]n3)ncnc2c1 [AZD2811] (first compound max 1 µM, 7x7, partner max 1 µM) | -0.0297 | 0.0107 | 0.0461 | -0.0177 | 0.129 | -0.0461 | -0.0067 | -0.0636 | -0.0523 | -0.0204 | 0.091 | 0.134 |  | 0.0304 | 0.191 | 0.139 | -0.0204 | 0.196
4 | CN(CCO)CC[C@H](CSc1ccccc1)Nc1ccc(S(=O)(=O)NC(=O)c2ccc(N3CCC([C@@H](O)c4ccccc4-c4ccc(Cl)cc4)CC3)cc2)cc1S(=O)(=O)C(F)(F)F [AZD4320] + C[C@@H]1COCCN1C2=NC(=NC(=C2)C3(CC3)[S@](=N)(=O)C)C4=C5C=CNC5=NC=C4 [AZD6738] (first compound max 1 µM, 7x7, partner max 10 µM) | -0.0511 | -0.0221 | -0.0343 | -0.0224 | 0.0338 | -0.0099 | 0.0264 | -0.0255 | -0.0711 | -0.0581 | -0.0014 | 0.019 | -0.0285 | -0.0385 | -0.0075 | 0.0634 | -0.0338 | 0.387
5 | CN(CCO)CC[C@H](CSc1ccccc1)Nc1ccc(S(=O)(=O)NC(=O)c2ccc(N3CCC([C@@H](O)c4ccccc4-c4ccc(Cl)cc4)CC3)cc2)cc1S(=O)(=O)C(F)(F)F [AZD4320] + C[C@@H](Nc1cc(F)cc(F)c1)c1cc(C(=O)N(C)C)cc2c(=O)cc(N3CCOCC3)oc12 [AZD8186] (first compound max 1 µM, 7x7, partner max 3 µM) | 0.0798 | 0 | -0.0024 | -0.0083 | 0.0312 | -0.0035 | 0.0022 | -0.034 | -0.0279 | -0.0277 | 0.0677 | 0.0276 | 0.0383 | 0.0944 | 0.0128 | 0.0388 | 0.0068 | 0.464
6 | CN(CCO)CC[C@H](CSc1ccccc1)Nc1ccc(S(=O)(=O)NC(=O)c2ccc(N3CCC([C@@H](O)c4ccccc4-c4ccc(Cl)cc4)CC3)cc2)cc1S(=O)(=O)C(F)(F)F [AZD4320] + Cc1cc2ncnn2cc1Nc1ncc2c(n1)n(C1CCOCC1)c(=O)n2C [AZD7648] (first compound max 1 µM, 7x7, partner max 10 µM) | -0.0345 | -0.0312 | 0.0237 | -0.0221 | -0.0018 | -0.0437 | -0.0452 | -0.0585 | -0.0146 | -0.0269 | 0.0246 | 0.0682 | -0.0403 | -0.0122 | 0.0049 | 0.0256 | -0.0628 | 0.211
7 | Cc1cc2ncnn2cc1Nc1ncc2c(n1)n(C1CCOCC1)c(=O)n2C [AZD7648] + C=CCn1c(=O)c2cnc(Nc3ccc(N4CCN(C)CC4)cc3)nc2n1-c1cccc(C(C)(C)O)n1 [AZD1775] (first compound max 10 µM, partner max 1 µM) | 0.0039 | 0.0217 | -0.0572 | -0.0672 | -0.0568 | -0.0271 | -0.028 | 0.027 | -0.0431 | -0.001 | 0.004 | 0.0276 | 0.0055 | 0.0458 | -0.0126 | -0.0505 | 0.0584 | 0.289
8 | Cc1cc2ncnn2cc1Nc1ncc2c(n1)n(C1CCOCC1)c(=O)n2C [AZD7648] + COc1cc([C@@H]2c3cc4c(cc3[C@@H](O[C@@H]3O[C@@H]5CO[C@@H](C)O[C@H]5[C@H](O)[C@H]3O)[C@H]3COC(=O)[C@H]23)OCO4)cc(OC)c1O [Etoposide] (first compound max 10 µM, 7x7, partner max 10 µM) |  | 0.119 |  |  |  | 0.116 | 0.125 | 0.0401 | 0.0299 | -0.0214 | 0.0896 |  |  |  |  |  | 0.056 | 
9 | Cc1nc(Nc2ncc(C(=O)Nc3c(C)cccc3Cl)s2)cc(N2CCN(CCO)CC2)n1 [Dasatinib] + CC(=O)Nc1cccc(-n2c(=O)n(C3CC3)c(=O)c3c(Nc4ccc(I)cc4F)n(C)c(=O)c(C)c32)c1 [Trametinib] (first compound max 2 µM, 7x7, partner max 1 µM) |  | 0.0736 | -0.0263 | 0.0199 | -0.0386 | 0.0589 | 0.052 | -0.0228 | 0.0567 | -0.0147 | 0.0858 | -0.165 | -0.0594 | -0.0825 | -0.0711 | -0.0669 | -0.0815 | 
10 | COc1cc2ncnc(Nc3ccc(F)c(Cl)c3)c2cc1OCCCN1CCOCC1 [Gefitinib] + CC(C)n1c(=O)n(C)c2cnc3cc(F)c(-c4ccc(OCCCN5CCCCC5)nc4)cc3c21 [AZD1390] (first compound max 10 µM, 7x7, partner max 0.3 µM) |  | -0.0544 | -0.0701 | -0.084 | -0.0495 | -0.0519 | 0.0145 | -0.0463 | -0.0374 | -0.0386 | -0.0279 | -0.0582 | -0.0456 | -0.0682 | -0.0689 | -0.0556 | -0.0783 | 
11 | N#Cc1cnc(Nc2cc(NC[C@H]3CNCCO3)c(C(F)(F)F)cn2)cn1 [SRA737] + CCc1c2c(nc3ccc(O)cc13)-c1cc3c(c(=O)n1C2)COC(=O)[C@]3(O)CC [SN-38] (first compound max 10 µM, 7x7, partner max 0.3 µM) |  | -0.0288 |  |  |  | 0.0451 | -0.0331 | -0.0813 | -0.035 | -0.045 | -0.0242 |  |  |  |  |  | -0.0387 | 
12 | N#Cc1cnc(Nc2cc(NC[C@H]3CNCCO3)c(C(F)(F)F)cn2)cn1 [SRA737] + Nc1ccn([C@@H]2O[C@H](CO)[C@@H](O)C2(F)F)c(=O)n1 [Gemcitabine] (first compound max 10 µM, 7x7, partner max 0.3 µM) |  | 0.0398 |  |  |  | 0.125 | -0.0085 | 0.0332 | -0.0009 | 0.0092 | 0.0426 |  |  |  |  |  | 0.0488 | 
13 | C[C@@H](c1ccc2nccn2c1)n1nnc2ncc(-c3cnn(C)c3)nc21 [Savolitinib] + CC1(C)CCC(CN2CCN(c3ccc(C(=O)NS(=O)(=O)c4ccc(NCC5CCOCC5)c([N+](=O)[O-])c4)c(Oc4cnc5[nH]ccc5c4)c3)CC2)=C(c2ccc(Cl)cc2)C1 [Venetoclax] (first compound max 1 µM, 7x7, partner max 1 µM) |  | -0.0463 | -0.0821 | -0.0577 | -0.0258 | -0.041 | -0.0732 | -0.0161 | -0.0423 | -0.0495 | 0.0031 | -0.0192 | -0.0486 | -0.0569 | -0.0822 | -0.0419 | -0.0616 | 
14 | C[C@@H](c1ccc2nccn2c1)n1nnc2ncc(-c3cnn(C)c3)nc21 [Savolitinib] + CN(CC[C@H](CSC1=CC=CC=C1)NC2=C(C=C(C=C2)S(=O)(=O)NC(=O)C3=CC=C(C=C3)N4CCC(CC4)[C@H](C5=CC=CC=C5C6=CC=C(C=C6)Cl)O)S(=O)(=O)C(F)(F)F)CCO [AZD4320] (first compound max 1 µM, 7x7, partner max 1 µM) |  | -0.0463 | -0.0597 | -0.0216 | -0.08 |  |  |  |  |  |  | 0.0447 | -0.0238 | -0.0287 | -0.044 | 0.0144 |  | 
15 | C[C@@H](c1ccc2nccn2c1)n1nnc2ncc(-c3cnn(C)c3)nc21 [Savolitinib] + Cc1c2c(nn1C)CSCc1cc(n(C)n1)CSc1cc(c3ccccc3c1)OCCCc1c(C(=O)O)n(C)c3c-2c(Cl)ccc13 [AZD5991] (first compound max 1 µM, 7x7, partner max 1 µM) |  | -0.0271 | 0.0005 | -0.0111 | -0.0262 | -0.0063 | -0.0423 | -0.0323 | -0.0086 | -0.0434 | -0.0076 | -0.0222 | -0.0255 | -0.054 | -0.0338 | 0.0012 | -0.0471 | 
